Reference: the NIST ThermoML archive (doi:10.1021/je201277d)
Numbers after ± are expanded uncertainties.

What was measured:
[1] = refractive index (other wavelength) (dimensionless); conditions: 298.15 K, 101.3 kPa, Liquid
[2] = refractive index (other wavelength) (dimensionless); wn = mass fraction of the nth substance listed; conditions: 298.15 K, 101.3 kPa, Liquid

C1CCCCC1 [cyclohexane]
[1]
Conditions	refractive index
Wavelength=670 nm	1.42253 ± 0.00063
Wavelength=925 nm	1.41832 ± 0.00063

C1CCCCC1 [cyclohexane] + CO
refractive index, [2]
Conditions	w1 = 0.1	w1 = 0.2004	w1 = 0.2999
Wavelength=670 nm	1.33196 ± 0.00063	1.34128 ± 0.00063	1.34987 ± 0.00063
Wavelength=925 nm	1.32811 ± 0.00063	1.33737 ± 0.00063	1.34602 ± 0.00063

C1CCCCC1 [cyclohexane] + Cc1ccccc1
refractive index, [2]
Conditions	w1 = 0.0996	w1 = 0.2002	w1 = 0.2995	w1 = 0.4003	w1 = 0.5004	w1 = 0.6002	w1 = 0.7	w1 = 0.8005	w1 = 0.9001
Wavelength=670 nm	1.48158 ± 0.00063	1.47363 ± 0.00063	1.46616 ± 0.00063	1.45883 ± 0.00063	1.45162 ± 0.00063	1.44527 ± 0.00063	1.43903 ± 0.00063	1.43327 ± 0.00063	1.42768 ± 0.00063
Wavelength=925 nm	1.47383 ± 0.00063	1.46618 ± 0.00063	1.4592 ± 0.00063	1.45229 ± 0.00063	1.44539 ± 0.00063	1.43956 ± 0.00063	1.43363 ± 0.00063	1.42825 ± 0.00063	1.42296 ± 0.00063

CO [methanol]
[1]
Conditions	refractive index
Wavelength=670 nm	1.32603 ± 0.00063
Wavelength=925 nm	1.32235 ± 0.00063

Cc1ccccc1 [toluene]
[1]
Conditions	refractive index
Wavelength=670 nm	1.48998 ± 0.00063
Wavelength=925 nm	1.48176 ± 0.00063

Cc1ccccc1 [toluene] + CO
refractive index, [2]
Conditions	w1 = 0.1001	w1 = 0.1994	w1 = 0.3001	w1 = 0.4	w1 = 0.4996	w1 = 0.6	w1 = 0.6994	w1 = 0.8001	w1 = 0.8994
Wavelength=670 nm	1.34089 ± 0.00063	1.35612 ± 0.00063	1.37219 ± 0.00063	1.38826 ± 0.00063	1.4056 ± 0.00063	1.42196 ± 0.00063	1.43865 ± 0.00063	1.45699 ± 0.00063	1.47418 ± 0.00063
Wavelength=925 nm	1.33686 ± 0.00063	1.35152 ± 0.00063	1.36718 ± 0.00063	1.38279 ± 0.00063	1.39956 ± 0.00063	1.41564 ± 0.00063	1.43182 ± 0.00063	1.44951 ± 0.00063	1.46633 ± 0.00063
